Assay results: patent US7022843B1, “β,β′-dihydroxy meso-substituted chlorins, isobacteriochlorins, and bacteriochlorins” (priority 1999, dated 2006)
Where “and” joins values, the source holds several entries; their conditions need not be identical. Equal entries are not always repeated.

Columns and labels:
tumors [1] = conditions: in sensitizing tumors; cited from earlier work
L1210 cells = assay: Phototoxicity in L1210 cells, MTT viability assay; assay type: cell-based; conditions: phototoxicity
Protocol: The above described compounds were tested in vitro for phototoxicity and dark toxicity in L1210 cells as described in the Example section below. Twenty four compounds which were tested for cytotoxicity are listed in Table 3 below along with BPD-MA.
Phototoxicity was determined with L11210 cells in the presence of the compound as follows: the L1210 cells were exposed to varying concentrations of the compounds in 96-well microtiter plates for one hour at 37° C. and 5% CO2. No fetal calf serum (FCS) was added at this time. The plate was then illuminated for one hour after which a 10% aqueous FCS solution was added to the wells. The plates were then returned to the CO2 incubator overnight. After incubation, the cells were assayed for viability using the MTT assay (Mossman, T. J. Immunol. Meth. 1983, 65, 55).

tumor = conditions: in vivo; cited from earlier work
tumors [2] = conditions: cited from earlier work
serum proteins = conditions: normal dose used for PDT (3–5 mg/kg body weight); cited from earlier work

C=Cc1c(C)c2cc3nc(cc4[nH]c(cc5nc(cc1[nH]2)C(C)=C5CCC(=O)O)c(CCC(=O)OC)c4C)C1(C)C3=CC=C(C(=O)OC)C1C(=O)OC (centres unmarked) [BPDMA, reference compound]
times more potent than HpD (tumors [1]): 70
times more potent than Photofrin™ (tumors [1]): 45
LD50 (L1210 cells): 0.026 µM
LD50 (L1210 cells; L1210 cells, 1 h exposure without FCS, 1 h illumination, MTT): 0.026 M and 19 ng/mL
LD50 (L1210 cells; L1210 cells, 1 h exposure without FCS, 1 h illumination, MTT, listed as BPD-MA): 19 ng/mL

Oc1cccc(-c2c3nc(c(-c4cccc(O)c4)c4ccc([nH]4)c(-c4cccc(O)c4)c4nc(c(-c5cccc(O)c5)c5ccc2[nH]5)CC4)C=C3)c1 [Tetra(m-hydroxyphenyl)chlorin]
recurrence (tumor): 10%
side effects (tumor): extended skin sensitivity, severe chest pains and loss of appetite
tumor necrosis (tumor): 90%
LD50 (tumors [2]; in vivo bioassays): 3 mg/kg
times more effective than HpD in destroying tumors (tumors [2]; in vivo): 25–30

CC1=C(CCC(=O)O)c2cc3[nH]c(cc4nc(cc5[nH]c(cc1n2)c(C)c5C(C)O)C(C)=C4C(C)O)c(C)c3CCC(=O)O (centres unmarked) [hematoporphyrin]
complexed by serum proteins (serum proteins): at least 95%
